Assay results published in PMC4837482, “The complex binding mode of the peptide hormone H2 relaxin to its receptor RXFP1” (Nature Communications, 2016).
Several values for one entry are separate records, joined by “and”; a condition that tells them apart may be missing. Equal entries are not always repeated.

Assays:
[1] = molecular target: LRR domain of RXFP1; test: Affinity for the LRR domain predicted from the titration data; parameters: species or system human; conditions: predicted from the RXFP1(1–72) titration data
[2] = molecular target: T1, RXFP1(1–72) (Homo sapiens, UniProt Q9HBX9); test: 2D 1H-15N HSQC monitored H2 relaxin titration of 15N-labelled RXFP1(1–72); conditions: 50 μM 15N-labelled RXFP1(1–72); single-site binding curve fit of Asp51, Ala55, Thr61 chemical shifts; pH 6.8, 25 °C; read-out: affinity (Kd) of H2 relaxin for RXFP1(1–72)
T1 construct: GB1 (N, cleaved yes); made in house; host or cells: E. coli BL21 (DE3) trxB
T1 sequence (Q9HBX9 23-94 limits assumed): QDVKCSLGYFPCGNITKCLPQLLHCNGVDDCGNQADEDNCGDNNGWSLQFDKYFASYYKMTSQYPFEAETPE
Protocol: All RXFP1(1–72) protein samples for nuclear magnetic resonance (NMR) experiments were prepared from lyophilized protein in 50 mM imidazole, with 10 mM CaCl2 at pH 6.8. Recombinant human gene-2 H2 relaxin peptide was kindly provided by Corthera. EL1^(475–486)/EL2-GB1 samples were prepared as described above. Titrant and titrand were dialyzed in the same buffer in the same vessel. All NMR experiments were routinely collected at 25 °C on a 700-MHz Bruker Avance HDIII spectrometer equipped with triple resonance cryoprobe. […] Backbone assignments were made from 3D HNCACB, HNCOCACB, HNCO and HNCACO experiments. Spectra were processed using NMRPipe (ref. [43]) and typically Fourier-transformed after applying Lorentz-to-Gauss window functions in the direct dimension and cosine bells in the indirect dimensions. NMR data were analysed using SPARKY (Goddard, T.D. and Kneller, D.G., University of California, San Francisco). Assignments of the mutant RXFP1(1–72) proteins were determined from the assignments of wild-type RXFP1(1–72).
The binding of H2 relaxin to RXFP1(1–72) was monitored by acquiring 2D ^1H-^15N Heteronuclear Single Quantum Coherence (HSQC; 2,048 × 256 data points) for each titration point of increasing H2 relaxin: 25, 50, 100, 200, 400 and 500 μM against 50 μM RXFP1(1–72). […]

For “H2 relaxin: two-chain 6-kDa peptide hormone structurally related to insulin; recombinant human gene-2 H2 relaxin provided by Corthera”, the Kd [1] was about 1000 nM and the Kd [2] was 200 µM and ~200 µM.
